Measurements from patent US11931424B2, “Combination MCL-1 inhibitors with anti-body drug conjugates” (Gilead Sciences, Inc., priority 2021, dated 2024).

Key:
Format in all cases: cell-based
[1] = tested on: HCC1187 (TNBC); assay: Compound A + SN-38 cell viability combination assay (Cell Titer Glo, Bliss synergy); settings: HCC1187, 1st Replicate (n = 5), 72 hours; SN-38 0.0000 μM; Compound A μM = c0 of the row
Excerpt: (§1) Cells were passaged according to ATCC guidelines with 0.25% Trypsin/EDTA (1× GIBCO-25200).
(§2) Calculated values were compared to experimental results generated in the sixty-three-concentration checkerboard. Synergy or antagonism scores were generated depending on whether the observed growth inhibition was greater than or less than the calculated values, respectively.
(§3) Data for combination assays is presented in three formats.

[2] = tested on: HCC1806; assay: Compound A + paclitaxel cell viability combination assay (Cell Titer Glo, Bliss synergy); settings: Homo sapiens, read-out: Percent Inhibition
Description: as §1
Viability assessments were performed using Cell Titer Glo™ (Promega #G9241) according to manufactures microwell plate protocol and read for luminescence on Synergy Neo2 plate reader.
For synergy matrix assays, TNBC cell lines were seeded 10,000 cells per well in clear-bottomed white 96-well plates (Corning #3909) in 100 μL of recommended cell culture medium. Plates were incubated at 37° C. and 100% RH for 20 hours prior to compound exposure.
Cells were then exposed to compound A with the same checkerboard matrix using D300 dispenser and incubated for 48 hours prior to measurement of viability by Cell Titer Glo.
as §2
These differences were summed up across the whole checker-board (sixty-three wells) to give cumulative synergy and antagonism scores with units of μM^2% to reflect the 2D surface of the dose responses.
as §3

[3] = tested on: panel of breast cancer cell lines; assay: Compound A with targeted agents and chemotherapies, 72-hour in vitro proliferation assays
[4] = tested on: panel of haematalogical cancer cell lines; assay: Compound A with BTK inhibitors, 72-hour in vitro proliferation assays; settings: combination Compound A × listed BTK inhibitor, 72-hour proliferation

## COc1nn(C)cc1C(=O)N[S@@]1(=O)=NC(=O)c2ccc3c(c2)N(C[C@@H]2CC[C@H]2[C@@H](OC)/C=C/C[C@H](C)C1)C[C@@]1(CCCc2cc(Cl)ccc21)CO3 [Compound A, N-[(4S,7aR,9aR,10S,11E,14S)-6′-chloro-10-methoxy-14-methyl-16-oxido-18-oxo-3′,4′,7,7a,8,9,9a,10,13,14,15,18-dodecahydro-2′H-spiro[1,19-(ethanediylidene)-16λ^4-cyclobuta[i][1,4]oxazepino[3,4-f][1,2,7]thiadiazacyclohexadecine-4,1′-naphthalen]-16-yl]-3-methoxy-1-methyl-1H-pyrazole-4-carboxamide]
[1]
  Percent Inhibition: 99.2%

## CC(=O)O[C@H]1C(=O)[C@@]2(C)[C@H]([C@H](OC(=O)c3ccccc3)[C@]3(O)C[C@H](OC(=O)[C@H](O)[C@@H](NC(=O)c4ccccc4)c4ccccc4)C(C)=C1C3(C)C)[C@]1(OC(C)=O)CO[C@@H]1C[C@@H]2O [Paclitaxel, reference compound]
[2]
  inhibition at 0.0005 µM: 2.3%
  inhibition at 1 µM: 64.8%
  inhibition at 3 µM: 69.9%
[3]; 72 h
  Best CI: 0.32
[3]; AU565 cell line, compound A × partner, 72-hour proliferation
  Best CI: 0.19
[3]; BT-20 cell line, compound A × partner, 72-hour proliferation
  Best CI: 0.05
[3]; BT-474 cell line, compound A × partner, 72-hour proliferation
  Best CI: 0.16
[3]; BT-549 cell line, compound A × partner, 72-hour proliferation
  Best CI: 0.27
[3]; CAL-51 cell line, compound A × partner, 72-hour proliferation
  Best CI: 0.50
[3]; CAL-85-1 cell line, compound A × partner, 72-hour proliferation
  Best CI: 0.23
[3]; CAL-148 cell line, compound A × partner, 72-hour proliferation
  Best CI: 0.25
[3]; CAMA-1 cell line, compound A × partner, 72-hour proliferation
  Best CI: 0.05
[3]; DU-4475 cell line, compound A × partner, 72-hour proliferation
  Best CI: 0.57
[3]; EVSA-T cell line, compound A × partner, 72-hour proliferation
  Best CI: 0.26
[3]; HCC38, compound A × partner, 72-hour proliferation
  Best CI: 0.21
[3]; HCC70, compound A × partner, 72-hour proliferation
  Best CI: 0.14
[3]; HCC1143, compound A × partner, 72-hour proliferation
  Best CI: 0.35
[3]; HCC1569, compound A × partner, 72-hour proliferation
  Best CI: 0.41
[3]; HCC1806, compound A × partner, 72-hour proliferation
  Best CI: 0.10
[3]; HCC1937, compound A × partner, 72-hour proliferation
  Best CI: 0.18
[3]; HCC1954, compound A × partner, 72-hour proliferation
  Best CI: 0.05
[3]; HCC2218, compound A × partner, 72-hour proliferation
  Best CI: 0.55
[3]; HDQ-P1, compound A × partner, 72-hour proliferation
  Best CI: 0.82
[3]; HMC-1-8, compound A × partner, 72-hour proliferation
  Best CI: 0.11
[3]; JIMT-1, compound A × partner, 72-hour proliferation
  Best CI: 0.50
[3]; MCF7 cells, Compound A × partner agent, 72-hour proliferation
  Best CI: 0.32
[3]; MDA-MB-175-VII cells, Compound A × partner agent, 72-hour proliferation
  Best CI: 0.13
[3]; MDA-MB-231 cells, Compound A × partner agent, 72-hour proliferation
  Best CI: 0.33
[3]; MDA-MB-361 cells, Compound A × partner agent, 72-hour proliferation
  Best CI: 0.50
[3]; MDA-MB-436 cells, Compound A × partner agent, 72-hour proliferation
  Best CI: 0.68
[3]; MDA-MB-453 cells, Compound A × partner agent, 72-hour proliferation
  Best CI: 0.07
[3]; MDA-MB-468 cells, Compound A × partner agent, 72-hour proliferation
  Best CI: 0.27
[3]; SK-BR-3 cells, combination of compound A with the named agent, 72-hour proliferation
  Best CI: 0.70
[3]; SUM159PT cells, combination of compound A with the named agent, 72-hour proliferation
  Best CI: 0.06
[3]; T47D cells, combination of compound A with the named agent, 72-hour proliferation
  Best CI: 0.08
[3]; ZR-75-1 cells, combination of compound A with the named agent, 72-hour proliferation
  Best CI: 0.07
[3]; ZR-75-30 cells, combination of compound A with the named agent, 72-hour proliferation
  Best CI: 0.41

## CC#CC(=O)N1CC[C@@H](n2c(=O)n(-c3ccc(Oc4ccccc4)cc3)c3c(N)ncnc32)C1 [Tirabrutinib]
[4]; HBL-1 cells
  Best CI: 0.06
  Best CI Level: 60
  Bliss Volume: 3.09
  HSA volume: 8.94
  Loewe Volume: 8.17
  Synergy Score: 7.02
[4]; OCI-Ly10 cells
  Best CI: 0.63
  Best CI Level: 80
  Bliss Volume: 0.21
  HSA volume: 3.22
  Loewe Volume: 1.63
  Synergy Score: 2.72
[4]; SU-DHL-2 cells
  Best CI: 0.42
  Best CI Level: 20
  Bliss Volume: 0.39
  HSA volume: −0.97
  Loewe Volume: 1.23
  Synergy Score: 0.98
[4]; SU-DHL-4 cells
  Best CI: 0.84
  Best CI Level: 20
  Bliss Volume: 1.52
  HSA volume: −2.97
  Loewe Volume: −0.81
  Synergy Score: 1.10
[4]; SU-DHL-8 cells
  Best CI: 0.45
  Best CI Level: 20
  Bliss Volume: 4.13
  HSA volume: −6.01
  Loewe Volume: −3.72
  Synergy Score: 0.60
[4]; TMD8 cells
  Best CI: 0.87
  Best CI Level: 20
  Bliss Volume: 1.28
  HSA volume: 3.05
  Loewe Volume: 1.96
  Synergy Score: 2.92
[4]; U-2932 cells
  Best CI: 0.62
  Best CI Level: 65
  Bliss Volume: 1.92
  HSA volume: 4.85
  Loewe Volume: 4.66
  Synergy Score: 3.69

## C=CC(=O)N1CCC([C@@H]2CCNc3c(C(N)=O)c(-c4ccc(Oc5ccccc5)cc4)nn32)CC1 [Zanubrutinib]
[4]; HBL-1 cells
  Best CI: 0.05
  Best CI Level: 55
  Bliss Volume: 5.13
  HSA volume: 10.34
  Loewe Volume: 9.75
  Synergy Score: 8.18
[4]; OCI-Ly10 cells
  Best CI: 0.50
  Best CI Level: 80
  Bliss Volume: 1.36
  HSA volume: 3.82
  Loewe Volume: 3.55
  Synergy Score: 4.04
[4]; SU-DHL-2 cells
  Best CI: 0.86
  Best CI Level: 40
  Bliss Volume: 1.42
  HSA volume: 0.63
  Loewe Volume: 1.23
  Synergy Score: 0.72
[4]; SU-DHL-4 cells
  Best CI: 1.06
  Best CI Level: 20
  Bliss Volume: 0.06
  HSA volume: −4.15
  Loewe Volume: −4.24
  Synergy Score: 0.76
[4]; SU-DHL-8 cells
  Best CI: 0.52
  Best CI Level: 30
  Bliss Volume: −5.98
  HSA volume: −5.32
  Loewe Volume: −5.81
  Synergy Score: 0.66
[4]; TMD8 cells
  Best CI: 0.07
  Best CI Level: 80
  Bliss Volume: 2.31
  HSA volume: 4.24
  Loewe Volume: 3.33
  Synergy Score: 3.91
[4]; U-2932 cells
  Best CI: 0.54
  Best CI Level: 65
  Bliss Volume: 5.21
  HSA volume: 7.71
  Loewe Volume: 7.67
  Synergy Score: 4.92
